# Source: publication PMC12751012, “Nanoscale Direct-to-Biology Optimization and Structural Insights into Selective S. aureus TrmD Inhibitors” (Journal of Medicinal Chemistry, 2025)
# Target: T1, S. aureus TrmD (Staphylococcus aureus, UniProt Q2FZ43)
# T1 construct: made in house; host or cells: E. coli BL21
# T1 sequence (Q2FZ43 1-245): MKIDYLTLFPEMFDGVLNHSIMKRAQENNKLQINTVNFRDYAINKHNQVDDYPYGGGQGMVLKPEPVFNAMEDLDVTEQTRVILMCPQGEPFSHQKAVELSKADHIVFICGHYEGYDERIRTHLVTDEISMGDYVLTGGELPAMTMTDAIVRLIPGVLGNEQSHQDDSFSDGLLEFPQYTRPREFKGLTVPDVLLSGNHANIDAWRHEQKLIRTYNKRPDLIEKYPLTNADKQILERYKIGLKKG
# Assay: nanoSAR direct-to-biology FP displacement screening of crude triazoles
# Assay type: binding
# Conditions: crude triazole at 1 μM, assuming full conversion; 500 nM TrmD, 10 nM tracer 4; read-out: % displaced tracer
# Outline: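 Crude CuAAC triazoles from alkyne 7 and 320 diverse azides were screened by FP displacement of 10 nM tracer 4 from 500 nM S. aureus TrmD. Buffer was 40 mM Tris HCl, 100 mM NaCl, 10 mM MgCl2, 5% glycerol, pH 7.5.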
row,SMILES,inhibition at 1 µM
1,"O=c1[nH]cnc2[nH]cc(-c3cn(CCCN4CCCOCC4)nn3)c12 [Compound 02A10, O=C1NC=NC=2NC=C(C=3N=NN(C3)CCC[N@@H+]4CCOCCC4)C12]",23%
2,"O=c1[nH]cnc2[nH]cc(-c3cn(-c4cccc5c4CCCC5)nn3)c12 [Compound 02A11, O=C1NC=NC=2NC=C(C=3N=NN(c4c5c(ccc4)CCCC5)C3)C12]",14%
3,"O=c1[nH]cnc2[nH]cc(-c3cn(C4(C(F)F)CC4)nn3)c12 [Compound 02A12, FC(F)C1(N2N=NC(C=3C=4C(=O)NC=NC4NC3)=C2)CC1]",18%
4,"O=c1[nH]cnc2[nH]cc(-c3cn(CCCCCO)nn3)c12 [Compound 02B01, O=C1NC=NC=2NC=C(C=3N=NN(C3)CCCCCO)C12]",27%
5,"O=c1[nH]cnc2[nH]cc(-c3cn(-c4ccc5nccnc5c4)nn3)c12 [Compound 02B02, O=C1NC=NC=2NC=C(C=3N=NN(c4cc5nccnc5cc4)C3)C12]",8.54%
6,"Cc1ccc(-n2cc(-c3c[nH]c4nc[nH]c(=O)c34)nn2)cc1Cl [Compound 02B03, Clc1c(ccc(N2N=NC(C=3C=4C(=O)NC=NC4NC3)=C2)c1)C]",0.61%
7,"O=c1[nH]cnc2[nH]cc(-c3cn(C4CCOCC4)nn3)c12 [Compound 02B04, O=C1NC=NC=2NC=C(C=3N=NN(C3)C4CCOCC4)C12]",10%
8,"O=c1[nH]cnc2[nH]cc(-c3cn(-c4ccc(-c5ccccc5)cc4)nn3)c12 [Compound 02B05, O=C1NC=NC=2NC=C(C=3N=NN(c4ccc(c5ccccc5)cc4)C3)C12]",3%
9,"NS(=O)(=O)c1ccc(-n2cc(-c3c[nH]c4nc[nH]c(=O)c34)nn2)cc1 [Compound 02B06, S(=O)(=O)(N)c1ccc(N2N=NC(C=3C=4C(=O)NC=NC4NC3)=C2)cc1]",17%
10,"O=c1[nH]cnc2[nH]cc(-c3cn(Cc4cccs4)nn3)c12 [Compound 02B07, S1C(=CC=C1)CN2N=NC(C=3C=4C(=O)NC=NC4NC3)=C2]",85%
11,"COc1ccccc1C(C)(C)n1cc(-c2c[nH]c3nc[nH]c(=O)c23)nn1 [Compound 02B08, O=C1NC=NC=2NC=C(C=3N=NN(C3)C(c4c(OC)cccc4)(C)C)C12]",5.49%
12,"CC[C@@H](c1ccccc1F)n1cc(-c2c[nH]c3nc[nH]c(=O)c23)nn1 [Compound 02B09, Fc1c(cccc1)[C@@H](N2N=NC(C=3C=4C(=O)NC=NC4NC3)=C2)CC]",24%
13,"CC(C)(C)OC(=O)N1CC(c2ocnc2Cn2cc(-c3c[nH]c4nc[nH]c(=O)c34)nn2)C1 [Compound 02B10, O=C(OC(C)(C)C)N1C[C@H](C=2OC=NC2CN3N=NC(C=4C=5C(=O)NC=NC5NC4)=C3)C1]",37%
14,"O=C(NCCCn1cc(-c2c[nH]c3nc[nH]c(=O)c23)nn1)c1c[nH]nn1 [Compound 02B11, O=C1NC=NC=2NC=C(C=3N=NN(C3)CCCNC(=O)C=4N=NNC4)C12]",10%
15,"O=c1[nH]cnc2[nH]cc(-c3cn(CCO[C@H]4CCOC4)nn3)c12 [Compound 02B12, O=C1NC=NC=2NC=C(C=3N=NN(C3)CCO[C@@H]4COCC4)C12]",56%
16,"Cc1ccc(O)c(Cn2cc(-c3c[nH]c4nc[nH]c(=O)c34)nn2)n1 [Compound 02C01, O=C1NC=NC=2NC=C(C=3N=NN(C3)Cc4nc(ccc4O)C)C12]",32%
17,"O=c1[nH]cnc2[nH]cc(-c3cn(CCc4c[nH]c5ccccc45)nn3)c12 [Compound 02C02, O=C1NC=NC=2NC=C(C=3N=NN(C3)CCC=4c5c(NC4)cccc5)C12]",56%
18,"O=c1[nH]cnc2[nH]cc(-c3cn(-c4ccc(Cl)cn4)nn3)c12 [Compound 02C03, Clc1cnc(N2N=NC(C=3C=4C(=O)NC=NC4NC3)=C2)cc1]",-1.83%
19,"O=c1[nH]cnc2[nH]cc(-c3cn(C[C@H](O)c4ccc(Cl)cc4)nn3)c12 [Compound 02C04, Clc1ccc(cc1)[C@@H](O)CN2N=NC(C=3C=4C(=O)NC=NC4NC3)=C2]",85%
20,"O=c1[nH]cnc2[nH]cc(-c3cn([C@H]4CC5(CCCC5)Oc5ccc(Cl)cc54)nn3)c12 [Compound 02C05, Clc1cc2c(OC3(C[C@@H]2N4N=NC(C=5C=6C(=O)NC=NC6NC5)=C4)CCCC3)cc1]",55%
21,"COC1([C@H](CO)n2cc(-c3c[nH]c4nc[nH]c(=O)c34)nn2)CCC1 [Compound 02C06, O=C1NC=NC=2NC=C(C=3N=NN(C3)[C@H](C4(OC)CCC4)CO)C12]",5%
22,"O=c1[nH]cnc2[nH]cc(-c3cn(Cc4cn5cccnc5n4)nn3)c12 [Compound 02C07, O=C1NC=NC=2NC=C(C=3N=NN(C3)CC=4N=C5N=CC=CN5C4)C12]",82%
23,"O=c1[nH]cnc2[nH]cc(-c3cn([C@H]4COCC[C@@H]4O)nn3)c12 [Compound 02C08, O=C1NC=NC=2NC=C(C=3N=NN(C3)[C@@H]4[C@@H](O)CCOC4)C12]",49%
24,"O=c1[nH]cnc2[nH]cc(-c3cn(CC4CCNCC4)nn3)c12 [Compound 02C09, O=C1NC=NC=2NC=C(C=3N=NN(C3)CC4CC[NH2+]CC4)C12]",79%

row,SMILES,inhibition at 1 µM
1,"O=c1[nH]cnc2[nH]cc(-c3cn(C4(c5ccc(F)cc5)CCOCC4)nn3)c12 [Compound 02C10, Fc1ccc(cc1)C2(N3N=NC(C=4C=5C(=O)NC=NC5NC4)=C3)CCOCC2]",6%
2,"O=C(O)c1ccc(Cn2cc(-c3c[nH]c4nc[nH]c(=O)c34)nn2)cc1 [Compound 02C11, [O-]C(=O)c1ccc(cc1)CN2N=NC(C=3C=4C(=O)NC=NC4NC3)=C2]",43%
3,"O=c1[nH]cnc2[nH]cc(-c3cn(-c4ccncc4)nn3)c12 [Compound 02C12, O=C1NC=NC=2NC=C(C=3N=NN(c4ccncc4)C3)C12]",18%
4,"O=c1[nH]cnc2[nH]cc(-c3cn(CCCN4CCC(C(F)(F)F)CC4)nn3)c12 [Compound 02D01, FC(F)(F)[C@@H]1CC[N@H+](CC1)CCCN2N=NC(C=3C=4C(=O)NC=NC4NC3)=C2]",23%
5,"COc1ccc(Cl)c(-n2cc(-c3c[nH]c4nc[nH]c(=O)c34)nn2)c1 [Compound 02D02, Clc1c(N2N=NC(C=3C=4C(=O)NC=NC4NC3)=C2)cc(OC)cc1]",3%
6,"O=c1[nH]cnc2[nH]cc(-c3cn(-c4nccs4)nn3)c12 [Compound 02D03, S1C(=NC=C1)N2N=NC(C=3C=4C(=O)NC=NC4NC3)=C2]",7%
7,"O=c1[nH]cnc2[nH]cc(-c3cn(C[C@@H]4CNCCO4)nn3)c12 [Compound 02D04, O=C1NC=NC=2NC=C(C=3N=NN(C3)C[C@H]4OCC[NH2+]C4)C12]",24%
8,"N#Cc1ccc(-n2cc(-c3c[nH]c4nc[nH]c(=O)c34)nn2)cc1 [Compound 02D05, O=C1NC=NC=2NC=C(C=3N=NN(c4ccc(C#N)cc4)C3)C12]",1.83%
9,"O=c1[nH]cnc2[nH]cc(-c3cn(C[C@@H]4CCOC4)nn3)c12 [Compound 02D06, O=C1NC=NC=2NC=C(C=3N=NN(C3)C[C@H]4COCC4)C12]",26%
10,"CC(C)C(=O)NCCn1cc(-c2c[nH]c3nc[nH]c(=O)c23)nn1 [Compound 02D07, O=C1NC=NC=2NC=C(C=3N=NN(C3)CCNC(=O)C(C)C)C12]",41%
11,"O=c1[nH]cnc2[nH]cc(-c3cn(-c4ccnc(CO)c4)nn3)c12 [Compound 02D08, O=C1NC=NC=2NC=C(C=3N=NN(c4cc(ncc4)CO)C3)C12]",25%
12,"N[C@H]1CC[C@H](n2cc(-c3c[nH]c4nc[nH]c(=O)c34)nn2)CC1 [Compound 02D09, O=C1NC=NC=2NC=C(C=3N=NN(C3)[C@@H]4CC[C@@H]([NH3+])CC4)C12]",21%
13,"N[C@]12CC[C@](n3cc(-c4c[nH]c5nc[nH]c(=O)c45)nn3)(CC1)C2 [Compound 02D10, O=C1NC=NC=2NC=C(C=3N=NN(C3)[C@]45C[C@]([NH3+])(CC4)CC5)C12]",11%
14,"O=c1[nH]cnc2[nH]cc(-c3cn(CC[C@@H]4CCCC4(F)F)nn3)c12 [Compound 02D11, F[C@@]1(F)[C@H](CCN2N=NC(C=3C=4C(=O)NC=NC4NC3)=C2)CCC1]",75%
15,"COc1cccc(OC)c1Cn1cc(-c2c[nH]c3nc[nH]c(=O)c23)nn1 [Compound 02D12, O=C1NC=NC=2NC=C(C=3N=NN(C3)Cc4c(OC)cccc4OC)C12]",18%
16,"CC(C)(CN)Cn1cc(-c2c[nH]c3nc[nH]c(=O)c23)nn1 [Compound 02E01, O=C1NC=NC=2NC=C(C=3N=NN(C3)CC(C[NH3+])(C)C)C12]",54%
17,"N#CCCCn1cc(-c2c[nH]c3nc[nH]c(=O)c23)nn1 [Compound 02E02, O=C1NC=NC=2NC=C(C=3N=NN(C3)CCCC#N)C12]",35%
18,"O=c1[nH]cnc2[nH]cc(-c3cn([C@H]4CCCCC[C@@H]4O)nn3)c12 [Compound 02E03, O=C1NC=NC=2NC=C(C=3N=NN(C3)[C@@H]4[C@@H](O)CCCCC4)C12]",10%
19,"NCCCCn1cc(-c2c[nH]c3nc[nH]c(=O)c23)nn1 [Compound 02E04, O=C1NC=NC=2NC=C(C=3N=NN(C3)CCCC[NH3+])C12]",16%
20,"COc1ccc(Cn2cc(-c3c[nH]c4nc[nH]c(=O)c34)nn2)cc1 [Compound 02E05, O=C1NC=NC=2NC=C(C=3N=NN(C3)Cc4ccc(OC)cc4)C12]",78%
21,"NC1(c2noc(Cn3cc(-c4c[nH]c5nc[nH]c(=O)c45)nn3)n2)CCCCCC1 [Compound 02E06, O=C1NC=NC=2NC=C(C=3N=NN(C3)CC=4ON=C(N4)C5([NH3+])CCCCCC5)C12]",24%
22,"O=c1[nH]cnc2[nH]cc(-c3cn(Cc4cscn4)nn3)c12 [Compound 02E07, S1C=NC(=C1)CN2N=NC(C=3C=4C(=O)NC=NC4NC3)=C2]",80%
23,"Nc1ccc(Cl)c(-n2cc(-c3c[nH]c4nc[nH]c(=O)c34)nn2)c1 [Compound 02E08, Clc1c(N2N=NC(C=3C=4C(=O)NC=NC4NC3)=C2)cc(N)cc1]",13%
